Laboratory results as given in article PMC8715907 (Chembiochem : a European journal of chemical biology, 2020).

What was measured:
CnpB = CnpB (Mycobacterium tuberculosis, UniProt P71615); assay: DRaCALA, serial dilutions of protein; format: binding
RECON (mRECON) = target: T1, RECON (mRECON) (Mus musculus, UniProt Q8VC28); assay: DRaCALA; format: binding
T1 sequence (Q8VC28 1-323): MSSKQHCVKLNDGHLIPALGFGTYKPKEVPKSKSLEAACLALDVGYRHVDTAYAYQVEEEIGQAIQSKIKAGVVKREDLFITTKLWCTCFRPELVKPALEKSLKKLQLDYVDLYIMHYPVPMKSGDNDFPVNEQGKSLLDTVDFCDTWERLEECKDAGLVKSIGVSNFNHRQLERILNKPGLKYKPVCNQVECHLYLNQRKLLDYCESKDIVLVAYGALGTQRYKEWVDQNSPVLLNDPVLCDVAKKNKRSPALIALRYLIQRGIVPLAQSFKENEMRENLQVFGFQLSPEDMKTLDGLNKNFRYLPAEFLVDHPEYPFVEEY

Sequence of CnpB (P71615 whole entry): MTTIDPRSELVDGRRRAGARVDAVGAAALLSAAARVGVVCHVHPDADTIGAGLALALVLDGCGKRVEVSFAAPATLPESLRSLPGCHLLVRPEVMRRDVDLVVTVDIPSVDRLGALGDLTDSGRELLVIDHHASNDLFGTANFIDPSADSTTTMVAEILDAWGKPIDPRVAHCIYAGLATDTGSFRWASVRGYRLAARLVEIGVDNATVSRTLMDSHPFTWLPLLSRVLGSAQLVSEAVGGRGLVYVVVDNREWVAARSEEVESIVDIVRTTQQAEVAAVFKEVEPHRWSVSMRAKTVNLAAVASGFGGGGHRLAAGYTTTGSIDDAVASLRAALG

Compound `Nc1ncnc2c1ncn2[C@@H]1O[C@@H]2COP(=O)(O)O[C@H]3[C@@H](O)[C@H](n4cnc5c(N)ncnc54)O[C@@H]3COP(=O)(O)O[C@H]2[C@H]1O` [3’3’-c-di-AMP] has a Kd (CnpB) of roughly 3000 nM and a Kd (RECON (mRECON)) of 68 nM.
